Laboratory results reported in article PMC6407917, “Identification of GSK3186899/DDD853651 as a Preclinical Development Candidate for the Treatment of Visceral Leishmaniasis” (Journal of Medicinal Chemistry, 2018).

Assays:
Assay in all cases: biochemical
Design in all cases: species or system HEK293/K-562/placenta mixed human extract; Kinobeads chemoproteomic competition binding, quantified by TMT LC-MS/MS, dose response up to 20 uM
[1] = target: BRAF (Homo sapiens, UniProt P15056)
[2] = target: CDK5 (Homo sapiens, UniProt Q00535)
[3] = target: CHEK1 (Homo sapiens, UniProt O14757)
[4] = target: DYRK2 (Homo sapiens, UniProt Q92630)
[5] = target: EPHB4 (Homo sapiens, UniProt P54760)
[6] = target: FGFR1 (Homo sapiens, UniProt P11362)
[7] = target: GAK (Homo sapiens, UniProt O14976)
[8] = target: HIPK1 (Homo sapiens, UniProt Q86Z02)
[9] = target: LATS1 (Homo sapiens, UniProt O95835)
[10] = target: MAP2K3 (Homo sapiens, UniProt P46734)
[11] = target: MAPK3 (Homo sapiens, UniProt P27361)
[12] = target: MAPKAPK3 (Homo sapiens, UniProt Q16644)
[13] = target: MARK2 (Homo sapiens, UniProt Q7KZI7)
[14] = target: PLK4 (Homo sapiens, UniProt O00444)
[15] = target: PRKAG1 (Homo sapiens, UniProt P54619)
[16] = target: PRKCA (Homo sapiens, UniProt P17252)
[17] = target: PRKX (Homo sapiens, UniProt P51817)
[18] = target: PTK2 (Homo sapiens, UniProt Q05397)
[19] = target: TAOK1 (Homo sapiens, UniProt Q7L7X3)
[20] = target: TGFBR1 (Homo sapiens, UniProt P36897)
[21] = target: TYK2 (Homo sapiens, UniProt P29597)

Measured: IC50

Sequence of PLK4 (O00444 whole entry): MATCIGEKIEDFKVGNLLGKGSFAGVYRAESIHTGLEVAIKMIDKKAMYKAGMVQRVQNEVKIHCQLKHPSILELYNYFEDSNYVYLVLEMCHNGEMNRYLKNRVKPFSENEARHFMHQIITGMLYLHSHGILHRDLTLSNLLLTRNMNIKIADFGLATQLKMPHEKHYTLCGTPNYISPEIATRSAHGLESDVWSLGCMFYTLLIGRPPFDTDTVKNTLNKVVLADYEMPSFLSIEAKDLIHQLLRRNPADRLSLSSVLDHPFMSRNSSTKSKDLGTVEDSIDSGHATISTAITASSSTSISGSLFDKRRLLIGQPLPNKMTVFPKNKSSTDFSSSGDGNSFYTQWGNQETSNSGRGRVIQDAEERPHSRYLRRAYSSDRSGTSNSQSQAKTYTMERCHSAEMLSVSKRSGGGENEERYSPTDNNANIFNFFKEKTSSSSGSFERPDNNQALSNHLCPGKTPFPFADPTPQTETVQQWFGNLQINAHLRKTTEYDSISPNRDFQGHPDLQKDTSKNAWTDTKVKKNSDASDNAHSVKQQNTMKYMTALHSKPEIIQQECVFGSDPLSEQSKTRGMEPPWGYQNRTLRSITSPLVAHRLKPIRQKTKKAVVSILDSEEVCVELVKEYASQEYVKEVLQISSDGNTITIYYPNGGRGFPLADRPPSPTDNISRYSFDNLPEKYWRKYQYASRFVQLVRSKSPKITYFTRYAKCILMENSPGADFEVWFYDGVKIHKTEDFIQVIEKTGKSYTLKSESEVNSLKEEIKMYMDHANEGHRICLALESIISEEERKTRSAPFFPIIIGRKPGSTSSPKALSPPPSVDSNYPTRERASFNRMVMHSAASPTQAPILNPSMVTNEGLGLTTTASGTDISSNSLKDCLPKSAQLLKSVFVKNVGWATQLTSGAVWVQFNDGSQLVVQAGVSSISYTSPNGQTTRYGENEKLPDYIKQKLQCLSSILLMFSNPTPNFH
Sequence of MAP2K3 (P46734 whole entry): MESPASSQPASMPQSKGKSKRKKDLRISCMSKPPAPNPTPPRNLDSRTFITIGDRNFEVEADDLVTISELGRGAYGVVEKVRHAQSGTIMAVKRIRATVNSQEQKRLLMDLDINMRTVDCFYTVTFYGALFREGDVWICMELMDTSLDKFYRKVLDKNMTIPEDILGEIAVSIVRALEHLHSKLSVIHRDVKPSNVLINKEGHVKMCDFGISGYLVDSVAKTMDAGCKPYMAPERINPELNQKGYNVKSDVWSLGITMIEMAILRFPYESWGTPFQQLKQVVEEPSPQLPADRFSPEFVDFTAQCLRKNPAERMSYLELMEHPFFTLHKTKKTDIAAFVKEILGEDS
Sequence of CHEK1 (O14757 whole entry): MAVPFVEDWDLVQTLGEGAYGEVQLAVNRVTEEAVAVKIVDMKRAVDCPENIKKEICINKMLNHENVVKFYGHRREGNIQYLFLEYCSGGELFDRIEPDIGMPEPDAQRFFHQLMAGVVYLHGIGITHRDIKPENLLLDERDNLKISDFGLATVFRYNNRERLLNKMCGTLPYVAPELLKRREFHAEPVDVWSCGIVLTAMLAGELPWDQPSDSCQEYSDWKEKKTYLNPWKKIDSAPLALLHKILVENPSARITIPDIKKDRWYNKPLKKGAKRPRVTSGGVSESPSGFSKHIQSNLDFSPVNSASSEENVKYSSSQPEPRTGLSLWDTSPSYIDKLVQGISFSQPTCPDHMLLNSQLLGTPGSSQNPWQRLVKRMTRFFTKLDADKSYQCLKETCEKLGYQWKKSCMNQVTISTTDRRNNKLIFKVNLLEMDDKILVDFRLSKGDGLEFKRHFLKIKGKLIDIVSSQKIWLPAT
Sequence of MARK2 (Q7KZI7 whole entry): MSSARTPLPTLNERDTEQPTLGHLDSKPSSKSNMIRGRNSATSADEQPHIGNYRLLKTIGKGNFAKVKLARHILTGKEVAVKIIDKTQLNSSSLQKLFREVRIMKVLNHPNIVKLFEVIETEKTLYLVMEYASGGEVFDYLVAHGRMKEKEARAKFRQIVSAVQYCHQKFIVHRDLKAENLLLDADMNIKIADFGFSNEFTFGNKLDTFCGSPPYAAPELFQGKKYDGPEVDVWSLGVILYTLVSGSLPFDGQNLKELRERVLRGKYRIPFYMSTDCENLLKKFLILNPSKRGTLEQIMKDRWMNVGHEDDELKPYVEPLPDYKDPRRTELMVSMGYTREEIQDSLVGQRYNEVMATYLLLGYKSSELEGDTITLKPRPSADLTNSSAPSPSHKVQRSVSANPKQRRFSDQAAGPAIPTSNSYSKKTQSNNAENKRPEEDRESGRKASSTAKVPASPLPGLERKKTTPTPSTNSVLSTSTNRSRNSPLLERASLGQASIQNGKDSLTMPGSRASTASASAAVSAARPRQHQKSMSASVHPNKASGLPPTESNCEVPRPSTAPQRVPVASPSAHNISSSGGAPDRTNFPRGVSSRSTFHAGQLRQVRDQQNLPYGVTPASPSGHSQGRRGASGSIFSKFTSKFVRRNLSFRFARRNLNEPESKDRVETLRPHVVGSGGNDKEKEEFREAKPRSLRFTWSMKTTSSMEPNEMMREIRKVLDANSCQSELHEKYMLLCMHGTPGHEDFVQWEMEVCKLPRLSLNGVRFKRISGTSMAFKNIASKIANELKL
Sequence of PTK2 (Q05397 whole entry): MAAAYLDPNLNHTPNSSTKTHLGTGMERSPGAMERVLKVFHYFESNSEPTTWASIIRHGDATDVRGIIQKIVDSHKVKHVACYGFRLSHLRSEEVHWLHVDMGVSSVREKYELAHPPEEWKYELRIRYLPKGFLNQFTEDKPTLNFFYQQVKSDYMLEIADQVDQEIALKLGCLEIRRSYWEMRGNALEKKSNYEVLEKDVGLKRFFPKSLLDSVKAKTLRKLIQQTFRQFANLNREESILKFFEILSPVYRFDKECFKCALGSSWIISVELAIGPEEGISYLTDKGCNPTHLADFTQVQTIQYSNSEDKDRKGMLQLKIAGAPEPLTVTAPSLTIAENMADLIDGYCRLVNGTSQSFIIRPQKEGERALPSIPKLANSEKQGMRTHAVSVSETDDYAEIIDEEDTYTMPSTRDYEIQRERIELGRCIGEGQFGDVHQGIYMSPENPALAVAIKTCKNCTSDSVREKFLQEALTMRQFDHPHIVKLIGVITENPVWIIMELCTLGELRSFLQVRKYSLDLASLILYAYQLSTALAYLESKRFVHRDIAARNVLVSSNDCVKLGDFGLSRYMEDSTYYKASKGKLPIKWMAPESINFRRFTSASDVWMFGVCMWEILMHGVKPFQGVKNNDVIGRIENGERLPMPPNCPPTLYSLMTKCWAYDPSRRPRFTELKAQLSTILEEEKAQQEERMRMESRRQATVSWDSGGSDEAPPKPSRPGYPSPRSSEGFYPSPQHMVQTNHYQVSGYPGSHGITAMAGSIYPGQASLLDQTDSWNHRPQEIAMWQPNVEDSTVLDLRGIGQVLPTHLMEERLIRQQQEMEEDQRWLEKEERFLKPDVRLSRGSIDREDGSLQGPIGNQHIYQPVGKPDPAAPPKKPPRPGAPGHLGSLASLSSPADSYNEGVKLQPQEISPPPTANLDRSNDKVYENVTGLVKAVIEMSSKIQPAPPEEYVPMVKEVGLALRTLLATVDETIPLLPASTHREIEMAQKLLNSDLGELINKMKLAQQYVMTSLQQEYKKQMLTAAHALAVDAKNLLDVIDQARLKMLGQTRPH
Sequence of PRKAG1 (P54619 whole entry): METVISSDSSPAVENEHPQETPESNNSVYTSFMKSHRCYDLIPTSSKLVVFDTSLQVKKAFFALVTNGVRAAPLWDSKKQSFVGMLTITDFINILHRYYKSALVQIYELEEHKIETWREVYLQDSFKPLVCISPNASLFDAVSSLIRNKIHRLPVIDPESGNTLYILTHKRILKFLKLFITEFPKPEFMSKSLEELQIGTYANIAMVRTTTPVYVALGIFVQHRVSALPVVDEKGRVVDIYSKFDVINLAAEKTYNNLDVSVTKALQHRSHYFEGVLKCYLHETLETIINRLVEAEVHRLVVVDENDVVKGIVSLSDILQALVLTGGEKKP
Sequence of MAPK3 (P27361 whole entry): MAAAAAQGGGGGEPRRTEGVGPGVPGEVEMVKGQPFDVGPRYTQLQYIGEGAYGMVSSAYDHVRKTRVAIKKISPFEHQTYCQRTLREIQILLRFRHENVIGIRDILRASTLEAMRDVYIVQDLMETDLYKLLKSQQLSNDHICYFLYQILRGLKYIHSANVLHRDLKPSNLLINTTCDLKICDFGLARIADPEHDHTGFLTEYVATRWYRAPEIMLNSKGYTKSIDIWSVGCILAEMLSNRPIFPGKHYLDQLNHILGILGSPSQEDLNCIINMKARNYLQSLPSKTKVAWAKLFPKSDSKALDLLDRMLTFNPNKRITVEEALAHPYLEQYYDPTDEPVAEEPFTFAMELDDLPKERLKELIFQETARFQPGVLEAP

COc1nc(N[C@H]2CC[C@H](NS(=O)(=O)CC(C)C)CC2)nc2[nH]nc(N3CCOC[C@H]3C)c12 [compound 39, N-(trans-4-((4-Methoxy-3-((R)-3-methylmorpholino)-1H-pyrazolo[3,4-d]pyrimidin-6-yl)amino)cyclohexyl)-2-methylpropane-1-sulfonamide]
12 µM: [2]
≥ 20 µM: all other assays above
